Test results: patent US20260265244A1, “HETEROCYCLIC COMPOUNDS AS STING ANTAGONISTS” (Boehringer Ingelheim International GmbH, priority 2022, published 2026)
Where two headings read alike, the source gives them in different places.

System: STING inhibition in human whole blood (IFNα2α production)
Assay: Human whole blood assay (HWBA): cGAMP-stimulated IFNα2α production
Format: cell-based
How it was run: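 Na-citrate human whole blood from ≥3 healthy donors, preincubated 60 min at room temperature with compound (8 concentrations, top 10 μM, ~1:5 steps, 0.1% DMSO), then stimulated with cGAMP and incubated 22 h at 37 °C. Plasma IFNα2α measured by MSD immunoassay; % control versus stimulated/unstimulated wells, IC50 by 4-parameter logistic fit.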

| SMILES | IC50 (Homo sapiens) [nM] | IC50 [nM] |
| --- | --- | --- |
| [2H][C@](O)(Cn1cc2c(-c3nn(-c4cc5cn(C)nc5nc4C)c(C)c3C(C)C)cccc2n1)c1ccccc1 [Example 3, (1R)-2-[4-(1-{2,6-dimethyl-2H-pyrazolo[3,4-b]pyridin-5-yl}-5-methyl-4-(propan-2-yl)-1H-pyrazol-3-yl)-2H-indazol-2-yl]-1-phenyl(1-^2H)ethan-1-ol] | 58 |  |
| Cc1nc2nn(C)cc2cc1-n1nc(-c2cccc3nn(C[C@H](OCCC(C)(C)O)c4ccccc4)cc23)c(C(C)C)c1C [Example 74, 4-[(1R)-2-[4-(1-{2,6-dimethyl-2H-pyrazolo[3,4-b]pyridin-5-yl}-5-methyl-4-(propan-2-yl)-1H-pyrazol-3-yl)-2H-indazol-2-yl]-1-phenylethoxy]-2-methylbutan-2-ol] | 450 |  |
| COC(C)c1nc2nn(C)cc2cc1-n1nc(-c2cccc3nn(C[C@H](O)c4ccccc4)cc23)c(C(C)C)c1C (stereo partly shown) [Example 75] |  | 450 |
| Cc1c(C(C)C)c(-c2cccc3nn(C[C@H](O)c4ccccc4)cc23)nn1-c1ccn2c(C(F)F)nnc2c1C1CC1 [Example 76] | 520 |  |
| Cc1nc2nn(C)cc2cc1-n1nc(-c2cccc3nn(C[C@H](OCCF)c4ccccc4)cc23)c(C(C)C)c1C [Example 78, 4-(1-{2,6-dimethyl-2H-pyrazolo[3,4-b]pyridin-5-yl}-5-methyl-4-(propan-2-yl)-1H-pyrazol-3-yl)-2-[(2R)-2-(2-fluoroethoxy)-2-phenylethyl]-2H-indazole] | 560 |  |
| C=CCO[C@@H](Cn1cc2c(-c3nn(-c4cc5cn(C)nc5nc4C)c(C)c3C(C)C)cccc2n1)c1ccccc1 [Example 79, 4-(1-{2,6-dimethyl-2H-pyrazolo[3,4-b]pyridin-5-yl}-5-methyl-4-(propan-2-yl)-1H-pyrazol-3-yl)-2-[(2R)-2-phenyl-2-(prop-2-en-1-yloxy)ethyl]-2H-indazole] | 580 |  |
| Cc1c(C(C)C)c(-c2cccc3nn(C[C@H](O)c4ccccc4)cc23)nn1-c1cc2cn(C)nc2nc1C1(C)CC1 [Example 80, (1R)-2-(4-{5-methyl-1-[2-methyl-6-(1-methylcyclopropyl)-2H-pyrazolo[3,4-b]pyridin-5-yl]-4-(propan-2-yl)-1H-pyrazol-3-yl}-2H-indazol-2-yl)-1-phenylethan-1-ol] | 580 |  |
| CCCO[C@@H](Cn1cc2c(-c3nn(-c4cc5cn(C)nc5nc4C)c(C)c3C(C)C)cccc2n1)c1ccccc1 [Example 81, 4-(1-{2,6-dimethyl-2H-pyrazolo[3,4-b]pyridin-5-yl}-5-methyl-4-(propan-2-yl)-1H-pyrazol-3-yl)-2-[(2R)-2-phenyl-2-propoxyethyl]-2H-indazole] | 610 |  |
| Cc1cc([C@@H](O)Cn2cc3c(-c4nn(-c5cc6cn(C)nc6nc5C)c(C)c4C(C)C)cccc3n2)ccn1 [Example 82, (1R)-2-[4-(1-{2,6-dimethyl-2H-pyrazolo[3,4-b]pyridin-5-yl}-5-methyl-4-(propan-2-yl)-1H-pyrazol-3-yl)-2H-indazol-2-yl]-1-(2-methylpyridin-4-yl)ethan-1-ol] | 610 |  |
| Cc1nc2nn(C)cc2cc1-n1nc(-c2cccc3nn(CC(O)C4CCCCC4)cc23)c(C(C)C)c1C (stereo not shown) [Example 83, 1-cyclohexyl-2-[4-(1-{2,6-dimethyl-2H-pyrazolo[3,4-b]pyridin-5-yl}-5-methyl-4-(propan-2-yl)-1H-pyrazol-3-yl)-2H-indazol-2-yl]ethan-1-ol] | 630 |  |
| CNc1nc2nn(C)cc2cc1-n1nc(-c2cccc3nn(C[C@H](O)c4ccccc4)cc23)c(C(C)C)c1C [Example 84, (1R)-2-(4-{5-methyl-1-[2-methyl-6-(methylamino)-2H-pyrazolo[3,4-b]pyridin-5-yl]-4-(propan-2-yl)-1H-pyrazol-3-yl}-2H-indazol-2-yl)-1-phenylethan-1-ol] | 640 |  |
| COCCO[C@@H](Cn1cc2c(-c3nn(-c4cc5cn(C)nc5nc4C)c(C)c3C(C)C)cccc2n1)c1ccccc1 [Example 85, 4-(1-{2,6-dimethyl-2H-pyrazolo[3,4-b]pyridin-5-yl}-5-methyl-4-(propan-2-yl)-1H-pyrazol-3-yl)-2-[(2R)-2-(2-methoxyethoxy)-2-phenylethyl]-2H-indazole] | 660 |  |
| Cc1c(-n2nc(-c3cccc4nn(C[C@H](O)c5ccccc5)cc34)c(C(C)C)c2C)ccn2c(C)nnc12 [Example 86, (1R)-2-[4-(1-{3,8-dimethyl-[1,2,4]triazolo[4,3-a]pyridin-7-yl}-5-methyl-4-(propan-2-yl)-1H-pyrazol-3-yl)-2H-indazol-2-yl]-1-phenylethan-1-ol] | 690 |  |
| Cc1c(C(C)C)c(-c2cccc3nn(C[C@H](O)c4ccccc4)cc23)nn1-c1cc2cn(C)nc2nc1N(C)C [Example 87, (1R)-2-(4-{1-[6-(dimethylamino)-2-methyl-2H-pyrazolo[3,4-b]pyridin-5-yl]-5-methyl-4-(propan-2-yl)-1H-pyrazol-3-yl}-2H-indazol-2-yl)-1-phenylethan-1-ol] | 850 |  |
| Cc1nc2nn(C)cc2cc1-n1nc(-c2cccc3nn(CC(O)c4ccc(Br)cc4)cc23)c(C(C)C)c1C (stereo not shown) [Example 88, 1-(4-Bromophenyl)-2-[4-(1-{2,6-dimethyl-2H-pyrazolo[3,4-b]pyridin-5-yl}-5-methyl-4-(propan-2-yl)-1H-pyrazol-3-yl)-2H-indazol-2-yl]ethan-1-ol] | 930 |  |
| Cc1c(C(C)C)c(-c2cccc3nn(C[C@H](O)c4ccccc4)cc23)nn1-c1cc2cn(C)nc2nc1C(C)(C)O [Example 89, 2-[5-(3-{2-[(2R)-2-hydroxy-2-phenylethyl]-2H-indazol-4-yl}-5-methyl-4-(propan-2-yl)-1H-pyrazol-1-yl)-2-methyl-2H-pyrazolo[3,4-b]pyridin-6-yl]propan-2-ol] | 1000 |  |
| Cn1cc2cc(-c3nc(-c4cccc5nn(C[C@H](O)c6ccc(OCC#N)cc6)cc45)c(C4CC4)n3C)c(C3CC3)nc2n1 [Example 90, 2-{4-[(1R)-2-[4-(5-cyclopropyl-2-{6-cyclopropyl-2-methyl-2H-pyrazolo[3,4-b]pyridin-5-yl}-1-methyl-1H-imidazol-4-yl)-2H-indazol-2-yl]-1-hydroxyethyl]phenoxy} acetonitrile] | 1100 |  |
| Cn1cc([C@@H](O)Cn2cc3c(-c4nc(-c5cc6cn(C)nc6nc5C5CC5)n(C)c4C4CC4)cccc3n2)cn1 [Example 91, (1R)-2-[4-(5-cyclopropyl-2-{6-cyclopropyl-2-methyl-2H-pyrazolo[3,4-b]pyridin-5-yl}-1-methyl-1H-imidazol-4-yl)-2H-indazol-2-yl]-1-(1-methyl-1H-pyrazol-4-yl)ethan-1-ol] | 1600 |  |
| Cc1nc2nn(C)cc2cc1-n1nc(-c2cccc3nn(C[C@H](O)c4ccccc4)cc23)c(C2(C)CC2)c1C [Example 92, (1R)-2-[4-(1-{2,6-Dimethyl-2H-pyrazolo[3,4-b]pyridin-5-yl}-5-methyl-4-(1-methylcyclopropyl)-1H-pyrazol-3-yl)-2H-indazol-2-yl]-1-phenylethan-1-ol] | 2000 |  |
| CCc1c(-c2cccc3nn(C[C@H](O)c4ccccc4)cc23)nn(-c2cc3cn(C)nc3nc2C)c1CC [Example 93, (1R)-2-[4-(1-{2,6-dimethyl-2H-pyrazolo[3,4-b]pyridin-5-yl}-4,5-diethyl-1H-pyrazol-3-yl)-2H-indazol-2-yl]-1-phenylethan-1-ol] | 2400 |  |
| Cc1c(-n2nc(-c3cccc4nn(C[C@H](O)c5ccccc5)cc34)c(C(C)C)c2C)ccn2c(C)cnc12 [Example 94, (1R)-2-[4-(1-{3,8-dimethylimidazo[1,2-a]pyridin-7-yl}-5-methyl-4-(propan-2-yl)-1H-pyrazol-3-yl)-2H-indazol-2-yl]-1-phenylethan-1-ol] | 2400 |  |
| Cc1nc2nn(C)cc2cc1-n1nc(-c2cccc3nn(C[C@H](O)c4ccccc4)cc23)c(C(C)CO)c1C (stereo partly drawn) [Example 95, 2-(1-{2,6-dimethyl-2H-pyrazolo[3,4-b]pyridin-5-yl}-3-{2-[(2R)-2-hydroxy-2-phenylethyl]-2H-indazol-4-yl}-5-methyl-1H-pyrazol-4-yl)propan-1-ol] | 2500 |  |
